From publication PMC4072806, “Defining Immune Engagement Thresholds for In Vivo Control of Virus-Driven Lymphoproliferation” (PLoS Pathogens, 2014)
Like-named read-outs stand apart in the source and are kept apart here. No end group written: not given here.

Experiments:
H2K^b = molecular target: T1, H2K^b (Mus musculus, UniProt P01901); type: cell-based
T1 construct: […]; endogenous in cells; host or cells: RMA/S cells (TAP-deficient)
Protocol: H2K^b stabilization was determined with TAP-deficient RMA/S cells. These were incubated overnight at 26°C to promote the export of empty H2K^b complexes, then loaded with graded concentrations of OVA or APL peptides (Thermo Scientific) for 2 h at 26°C and subsequently transferred to 37°C for 2 h to destabilize empty MHC molecules. The cells were then washed twice, stained with anti-H2K^b (AF6-88.5.5.3, eBioscience), and analysed on a LSR Fortessa (BD Biosciences). Mean fluorescence intensities were determined with FlowJo (Tree Star). To measure the ex vivo stimulation of naïve OT-I T cells by OVA and APLs, CD8^+ T cells from the spleens of naïve OT-I mice were purified by negative selection (CD8^+ T cell isolation kit, Miltenyi Biotech); for equivalent peptide/MHC class I numbers, irradiated (7500 rads) RMA/S cells were loaded with different peptides at 26°C, then incubated at 37°C; and 5×10^4 OT-I T cells were cultured with 2.5×10^4 RMA/S cells for 72 h at 37°C. IFNγ levels in culture supernatants were measured by ELISA (DuoSet ELISA development kit, R&D Systems). The data were fitted to sigmoidal dose-response curves and EC50 values calculated using GraphPad Prism.

[1] = tested on: OT-I CTL (H2K^b-OVA-specific TcR of OT-I); assay: Functional avidity of OT-I CTL by IFNγ production (ELISA); type: cell-based, mouse; details: Figure 1C, naive OT-I CD8+ T cells with peptide-loaded irradiated RMA/S cells, 72 h 37°C, repeated in duplicates 4 times, read-out: OT-I sensitivity EC50
[2] = molecular target: H2K^b (MHC class I, empty complexes on TAP-deficient RMA/S cells) (mouse (endogenous in RMA/S))
[3] = Figure 1B, TAP-deficient RMA/S cells, peptide 2 h 26°C then 2 h 37°C, anti-H2K^b FACS MFI, experiment repeated 3 times, read-out: EC50 (H2K^b stabilization)

Molecule | EC50 (H2K^b; [3]) [nM] | EC50 [1] [nM] | also measured
SIIVFEKL [V4] | 63 | 68.5 | –
E1 altered peptide ligand of OVA (EIINFEKL) | – | – | fold more peptide than OVA for equivalent H2K^b stabilization [2]: 6 fold
SIINFEKA [A8] | 2470 | 10300 | –
SIIQFEKL [Q4] | 30 | 0.243 | –
EIINFEKL [E1] | 235 | 7780 | –
SIIGFEKL [G4] | 34 | 3610 | –
OVA peptide, amino acid residues 257-264 of ovalbumin (SIINFEKL) | – | – | EC50 [2]: 40 nM
CC[C@H](C)[C@H](NC(=O)[C@@H](NC(=O)[C@@H](N)CO)[C@@H](C)CC)C(=O)N[C@@H](CC(N)=O)C(=O)N[C@@H](Cc1ccccc1)C(=O)N[C@@H](CCC(=O)O)C(=O)N[C@@H](CCCCN)C(=O)N[C@@H](CC(C)C)C(=O)O [OVA, reference compound] | – | 0.0182 | EC50 (H2K^b; RMA/S cells, read-out: concentration giving 50% maximal H2K^b stabilization (EC50)): 40 nM
SIIRFEKL [R4] | 56 | – | –
A8 altered peptide ligand of OVA (mutated anchor residue) | – | – | fold more peptide than E1 for equivalent H2K^b stabilization [2]: 10 fold
